# Entries after “also recorded” stand apart in the source; their conditions may differ.
# Tests used:
# [1] = ROS scavenging activity, DCFDA assay, cell-free in vitro; conditions: SIN-1-induced oxidative stress
# Protocol: (§1) ROS scavenging activity was determined according to the method reported by Ali et al. and Lebel and Bondy. Briefly, 2′,7′-Dichlorodihydrofluorescein-diacetate (DCFH-DA) (2.5 mM, Molecular Probes, Eugene, OR, USA) mixed with esterase (1.5 units/mL), was incubated at 37 °C for 30 min and placed on ice in the dark until immediately prior to the study. Phosphate buffer (50 mM) at pH 7.4 was used. To determine intracellular ROS scavenging activity, B16F10 cells (1 × 10^4/well) were seeded in black 96-well plates. After 24 h, the cells were incubated with DCFH-DA (20 µM) and SIN-1 ([…]) for 30 min to induce ROS generation. The fluorescence intensity of oxidized DCFH was measured using a fluorescent microplate reader at excitation and emission wavelengths of 485 and 530 nm, respectively (Tecan, Männedorf, Switzerland). Trolox was used as the positive control.
# ROS may regulate melanogenesis in melanoma cells. The principle of the intracellular ROS assay is that DCF-DA spreads through the cell membrane and is enzymatically hydrolyzed to […] by esterase; DCFH then responses with ROS to yield DCF [56]. The ROS scavenging activity of compounds 1–3 was investigated in vitro by using fluorescence probes, (DCF-DA) for ROS. SIN-1 is used as an NO donor [57, 58]. […] . […] The importance of catechol moiety (3,4-dihydroxy group) for ROS scavenging activity was reported in previous studies in the literature.
# Figure 5 Reactive oxygen species (ROS) scavenging activity of compound 2. The inhibitory effect of compound 2 on ROS production was evaluated. A DCFDA assay was performed to determine ROS levels. The ROS scavenger trolox was used as the positive control. The scavenging activity of compound 2 on oxidative stress induced by 10 µM SIN-1 was estimated in cell-free in vitro (A). B16F10 cells were pre-treated with compound 2 and trolox for 3 h and further treated with 10 µM SIN-1 (B).
# mushroom tyrosinase = mushroom tyrosinase (Agaricus bisporus, UniProt C7FF04); assay: Enzyme kinetic analysis of mushroom tyrosinase (Lineweaver–Burk and Dixon plots); format: biochemical; conditions: L-tyrosine substrate 0.5–4 mM
# mushroom tyrosinase, sequence (C7FF04 1-392): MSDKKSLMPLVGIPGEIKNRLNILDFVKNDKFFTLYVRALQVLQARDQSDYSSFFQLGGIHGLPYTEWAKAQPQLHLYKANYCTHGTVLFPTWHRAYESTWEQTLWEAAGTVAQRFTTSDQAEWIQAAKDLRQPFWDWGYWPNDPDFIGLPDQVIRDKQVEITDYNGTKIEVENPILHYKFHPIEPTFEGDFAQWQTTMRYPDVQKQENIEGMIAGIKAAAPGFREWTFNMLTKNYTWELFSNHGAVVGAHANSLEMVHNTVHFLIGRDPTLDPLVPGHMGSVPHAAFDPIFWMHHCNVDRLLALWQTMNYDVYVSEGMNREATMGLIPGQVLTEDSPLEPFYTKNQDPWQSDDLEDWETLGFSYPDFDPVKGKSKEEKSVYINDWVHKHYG
# Protocol: Lineweaver–Burk and Dixon plots were used to calculate the inhibition mode and inhibition constant (Ki) against mushroom tyrosinase. Kinetic parameters for various concentrations of the L-tyrosine substrate (0.5–4 mM) and inhibitors (0.4, 2, and 10 µM for compound 1; and 2, 4, and 8 µM for compound 2; and 2.5, 5, and 10 µM for compound 3, respectively) were achieved.
# To elucidate the type of enzymatic inhibition, a kinetic analysis was accomplished at several concentrations of the L-tyrosine substrate and inhibitors (1–3), according to the Lineweaver–Burk and Dixon plot methods (Table 3 and Figure 2). […] Furthermore, the Dixon plot is a graphical method [plot of 1/enzyme velocity (1/V) against inhibitor concentration (I)] used to determine the type of enzymatic inhibition and the dissociation or inhibition constant (Kic) for the enzyme-inhibitor complex.
# Figure 2 Enzymatic kinetics study of compounds 1–3 against tyrosinase. Lineweaver–Burk plots for the inhibition of mushroom tyrosinase of compounds 1 (A), 2 (B), and 3 (C). Dixon plots for tyrosinase inhibition of compounds 1 (D), 2 (E), and 3 (F) using L-tyrosine as the substrate.
# B16F10 cells [2] = assay: Melanin contents in α-MSH and IBMX-induced B16F10 cells; conditions: α-MSH and IBMX 48 h, 5, 10 and 20 µM
# Text: All results were standardized to the total protein concentration of the cell lysates using the bicinchoninic acid (BCA) reagent (Thermo Fisher Scientific, Waltham, MA, USA).
# B16F10 cells [3] = assay: Intracellular ROS levels in SIN-1-treated B16F10 cells; format: cell-based, mouse; conditions: pre-treated 3 h, then SIN-1
# Protocol: as §1
# ROS may regulate melanogenesis in melanoma cells. The principle of the intracellular ROS assay is that DCF-DA spreads through the cell membrane and is enzymatically hydrolyzed to […] by esterase; DCFH then responses with ROS to yield DCF [56]. The ROS scavenging activity of compounds 1–3 was investigated in vitro by using fluorescence probes, (DCF-DA) for ROS. SIN-1 is used as an NO donor [57, 58]. […]
# Figure 5 Reactive oxygen species (ROS) scavenging activity of compound 2. The inhibitory effect of compound 2 on ROS production was evaluated. […]
# [4] = test system: MITF, tyrosinase, TRP1, TRP2 mRNA; assay: Real-time qPCR of melanogenic genes in α-MSH- and IBMX-induced B16F10 cells; format: cell-based, mouse; conditions: normalized to GAPDH
# Protocol: RNA from cell samples was purified using the RiboEx Total RNA solution (GeneAll Biotechnology, Seoul, Korea) according to the manufacturer’s instructions. Total RNA (2 µg) treated with ribonuclease (RNase) free deoxyribonuclease (DNase) was reverse-transcribed using Hyperscript^TM One-Step RT-PCR (GeneAll Biotechnology, Seoul, Korea). Real-time qPCR was performed using the SensiFAST^TM SYBR® No-ROX dye (Bioline, London, UK.) and a CFX Connect System (Bio-Rad Laboratories, Hercules, CA, USA). Relative gene expression was calculated with the standard curve method using GAPDH as the internal control. Ct values were obtained with qPCR. Three independent tests were performed.
# The effects of compound 2 on the expression of mRNA melanogenic factors were evaluated in α-MSH- and IBMX-induced B16F10 cells. […] The mRNA levels of tyrosinase, TRP1, TRP2, and MITF were quantified with real-time qPCR (Figure 7F).
# Figure 7 Effects of compound 2 on melanogenic proteins and mRNA levels in α-MSH- and IBMX-induced B16F10 cells. […] The expression levels of tyrosinase, p-CREB, p-PKA, p-JNK, p-ERK, p-p38, and β-actin were determined with Western blotting in the cytosolic fraction. β-actin was used as the loading control (A,B,D,E). The expression levels of MITF and TFIIB were determined with Western blotting in the nuclear fraction. […]
# [5] = test system: tyrosinase, p-CREB, p-PKA, MITF, p-JNK, p-ERK, p-p38; assay: Western blot analysis of melanogenic signaling proteins in α-MSH- and IBMX-induced B16F10 cells; format: cell-based, mouse
# Protocol: Lysed samples were boiled for 10 min with gel-loading buffer (0.125 M Tris-HCl, pH 6.8, 4% SDS, 10% 2-mercaptoethanol and 0.2% bromophenol blue) at a volume ratio of 1:1. Total protein equivalents were separated with SDS-PAGE using 9–10% acrylamide gels and then transferred onto polyvinylidene fluoride membranes (Millipore, Burlington, MA, USA) at 25 V for 10 min in a semi-dry transfer system (Bio-Rad Laboratories, Hercules, CA, USA). The membranes were immediately placed in blocking buffer (5% non-fat milk) in 10 mM Tris (pH 7.5), 100 mM NaCl, and 0.1% Tween-20. The blots were blocked at room temperature for 1 h. The membranes were incubated with appropriate specific primary antibodies at 4 °C overnight and then treated with horseradish peroxidase-conjugated anti-mouse, anti-rabbit or anti-goat antibodies (1:5000) at 25 °C for 1 h (Santa Cruz Biotechnology, Dallas, TX, USA). Protein bands were visualized using the SuperSignal® West Pico Chemiluminescent Substrate kit (Advansta, San Jose, CA, USA) and Davinch-Chemi^TM (Davinch-K, Seoul, Korea).
# It is important to determine whether the inhibition of melanin synthesis by compound 2 is related to melanogenesis signaling and gene expression. […] MITF, a leucine zipper transcription factor, activates the expression of multiple genes encoding enzymes involved in the conversion of tyrosine into melanin, resulting in increased levels of these melanin-producing proteins. […] The skin is site of oxidative stress due to exposure to daylight and environmental oxidizing pollutants. It is known that ROS stimulates α-MSH- and IBMX-induced production in melanoma cells leading to melanogenesis by upregulating MITF, a transcription factor that induces tyrosinase gene expression. […] However, the levels of phosphorylated p38 were not affected by treatment with compound 2. In our study, both p-JNK and p-ERK were decreased by compound 2.
# Figure 7 Effects of compound 2 on melanogenic proteins and mRNA levels in α-MSH- and IBMX-induced B16F10 cells. […] The expression levels of tyrosinase, p-CREB, p-PKA, p-JNK, p-ERK, p-p38, and β-actin were determined with Western blotting in the cytosolic fraction. β-actin was used as the loading control (A,B,D,E). The expression levels of MITF and TFIIB were determined with Western blotting in the nuclear fraction. TFIIB was used as the loading control (C). Relative mRNA levels of the melanogenic genes MITF, Tyrosinase, Trp1, and Trp2 in the cells were quantified using real-time qPCR and normalized to the GAPDH mRNA level (F).
# B16F10 cells [6] = assay: Cell viability, EZ-Cytox assay; format: cell-based, mouse; conditions: 5–200 µM, 48 h, vs vehicle control
# Protocol: The mouse melanoma cell line B16F10 was acquired from American Type Culture Collection (ATCC®; CCL-6475™) (Manassas, VA, USA) and cultured in DMEM, supplemented with 10% fetal bovine serum (FBS) and 1% penicillin–streptomycin, at 37 °C in a humidified 5% CO2 atmosphere. Cell viability assays were performed with minor modifications, as previously reported. Cell viability was evaluated using the EZ-Cytox assay kit (DaeilLab, Seoul, Korea). The compounds were dissolved in DMSO for the in vitro experiments.
# The EZ-Cytox assay was used to estimate cell viability. […] Consequently, 20 µM sample concentrations of compounds 1–3 and trolox were used for further experiments.
# Figure 4 Effects of compounds 1–3 and trolox on the viability of B16F10 cells. Cells were incubated with different concentrations (5–200 µM) of compound 1 (A), 2 (B), 3 (C), and trolox (D) for 48 h, and cell viability was determined using EZ-Cytox assay. *** p < 0.001 vs. DMSO-treated.
# [7] = cytosolic fraction, 5, 10 and 20 µM
compound,measurement,setting,value
O=c1/c(=C/c2ccc(O)cc2)sc2nc3ccccc3n12 [Compound 1],melting point,,≥ 300 °C
same,IC50,[1],≥ 50 µM
same,Inhibition Type,mushroom tyrosinase,Competitive
same,effect on melanin contents,B16F10 cells [2],reduced the melanin content at 20 µM
O=c1/c(=C/c2ccc(O)c(O)c2)sc2nc3ccccc3n12 [Compound 2],SIN-1-induced ROS generation in cells,B16F10 cells [3],dose-dependently scavenged ROS; also recorded: reduced SIN-1-induced ROS generation in a dose-dependent manner
same,melting point,,≥ 300 °C
same,"mRNA levels of tyrosinase, TRP1, TRP2 and MITF",[4],significantly inhibited the expression
same,IC50,[1],2.36 ± 0.48 µM
same,Inhibition Type,mushroom tyrosinase,Competitive
same,"expression of tyrosinase, phosphorylated CREB and PKA",[5]; [7],decreased their expression on these proteins in a dose-dependent manner
same,levels of phosphorylated JNK and ERK,[5]; [7],decreased the levels of phosphorylated JNK and ERK in a concentration-dependent manner
same,levels of phosphorylated p38,[5]; [7],not affected
same,MITF levels,"[5]; nuclear fraction, 5, 10 and 20 µM",significantly suppressed MITF levels
O=c1/c(=C/c2ccc(O)cc2O)sc2nc3ccccc3n12 [Compound 3],melting point,,263.7 to 268.3 °C
same,IC50,[1],≥ 50 µM
same,Inhibition Type,mushroom tyrosinase,Competitive
COc1cc(/C=c2\sc3nc4ccccc4n3c2=O)ccc1O [Compound 4],melting point,,262.3 to 264 °C
CCOc1cc(/C=c2\sc3nc4ccccc4n3c2=O)ccc1O [Compound 5],melting point,,210.7 °C
COc1ccc(/C=c2\sc3nc4ccccc4n3c2=O)cc1O [Compound 6],melting point,,249.6 to 252.1 °C
COc1ccc(/C=c2\sc3nc4ccccc4n3c2=O)cc1 [Compound 7],melting point,,239.5 to 241.8 °C
COc1ccc(/C=c2\sc3nc4ccccc4n3c2=O)cc1OC [Compound 8],melting point,,236.7 to 236.9 °C
COc1ccc(/C=c2\sc3nc4ccccc4n3c2=O)c(OC)c1 [Compound 9],melting point,,250.1 to 257.5 °C
O=c1/c(=C/c2ccccc2O)sc2nc3ccccc3n12 [Compound 10],melting point,,244.2 to 245.2 °C
COc1cc(/C=c2\sc3nc4ccccc4n3c2=O)cc(OC)c1OC [Compound 11],melting point,,215.1 °C
COc1cc(/C=c2\sc3nc4ccccc4n3c2=O)cc(OC)c1O [Compound 12],melting point,,261.9 to 269.1 °C
O=c1/c(=C/c2ccc(O)c(Br)c2)sc2nc3ccccc3n12 [Compound 13],melting point,,293.7 to 297 °C
"Cc1c(C)c2c(c(C)c1O)CCC(C)(C(=O)O)O2 (stereo not shown) [Trolox, reference compound]",cell viability,B16F10 cells [6],did not significantly affect cell viability at concentrations up to 20 µM
same,IC50,[1],13.2 ± 0.73 µM
